Values of other authors in patent publication US12144813B2, “PLK1 inhibitor in combination with anti-angiogenics for treating metastatic cancer” (CARDIFF ONCOLOGY, INC., priority 2022, dated 2024).
Read-outs that look alike come from different tables or passages of the source.

What was measured:
[1] = tested on: patients with advanced/metastatic solid tumors
[2] = tested on: cell lines, both from solid as well as hematologic tumors; conditions: large number of cell lines, solid and hematologic tumors
[3] = tested on: cancer cell lines
[4] = tested on: disseminated model of AML
[5] = tested on: HT29 human colon adenocarcinoma xenografts; conditions: combination with irinotecan
[6] = tested on: AML cell lines
[7] = target: PLK1 (Homo sapiens, UniProt P53350); conditions: panel of 296 kinases, including other PLK members
[8] = tested on: xenograft tumor; conditions: well tolerated doses in mice after oral administration
[9] = tested on: patients with AML who were treatment naïve yet unsuitable for induction therapy; conditions: administered intravenously in combination with LDAC; phase II
[10] = tested on: AML; conditions: combination with LDAC; phase III
[11] = tested on: 2nd line patients, bev naïve or prior bev in 1st line; conditions: prior trials

Chain of PLK1 (P53350 whole entry): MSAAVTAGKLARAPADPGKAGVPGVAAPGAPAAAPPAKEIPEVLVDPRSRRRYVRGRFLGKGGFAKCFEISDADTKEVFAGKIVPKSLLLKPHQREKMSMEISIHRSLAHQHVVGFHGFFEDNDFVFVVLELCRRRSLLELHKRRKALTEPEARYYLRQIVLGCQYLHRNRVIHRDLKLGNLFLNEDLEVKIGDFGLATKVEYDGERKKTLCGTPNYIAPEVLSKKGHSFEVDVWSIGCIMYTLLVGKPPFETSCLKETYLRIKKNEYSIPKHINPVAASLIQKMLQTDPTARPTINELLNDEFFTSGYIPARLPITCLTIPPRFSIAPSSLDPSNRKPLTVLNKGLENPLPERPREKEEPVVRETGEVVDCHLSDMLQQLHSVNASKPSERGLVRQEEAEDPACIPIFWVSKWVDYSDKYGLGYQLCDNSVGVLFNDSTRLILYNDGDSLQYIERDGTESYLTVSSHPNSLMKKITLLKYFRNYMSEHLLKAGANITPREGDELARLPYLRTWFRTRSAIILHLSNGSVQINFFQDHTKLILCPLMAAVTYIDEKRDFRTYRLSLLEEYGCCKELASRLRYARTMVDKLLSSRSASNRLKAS

For CN1CCN(c2ccc(OC(F)(F)F)c(Nc3ncc4c(n3)-c3c(c(C(N)=O)nn3CCO)CC4)c2)CC1 [Onvansertib, 1-(2-hydroxyethyl)-8-{[5-(4-methylpiperazin-1-yl)-2-(trifluoromethoxy)phenyl]amino}-4,5-dihydro-1H-pyrazolo[4,3-h]quinazoline-3-carboxamide], the Primary dose-limiting toxicities ([1]; phase I, patients with advanced/metastatic solid tumors) is listed as “neutropenia and thrombocytopenia”, the “Recovery from hematologic toxicities” value ([1]; reversible toxicities) is listed as ≤ 3 weeks and the “Potency in proliferation assays” value [2] is listed as “low nanomolar activity”. For the same compound, the Cell-cycle effect [3] was “mitotic cell-cycle arrest followed by apoptosis”, the Survival of animals ([4]; disseminated model of AML, combination therapy with cytarabine) was “prolonged survival” and the “Effect on cytarabine antitumor activity” value ([4]; disseminated models of AML, with cytarabine) was “significantly increased”. The “Tumor regression compared to each agent alone” value [5] was “enhanced tumor regression”, the “Inhibition of cell proliferation” value [6] was “nanomolar concentrations” and the “Specificity for PLK1” value [7] was “high specificity”. The Xenograft tumor growth [8] was “inhibits xenograft tumor growth”.

For CC[C@@H]1C(=O)N(C)c2cnc(Nc3ccc(C(=O)N[C@H]4CC[C@H](N5CCN(CC6CC6)CC5)CC4)cc3OC)nc2N1C(C)C [volasertib (BI6727)], the “OS compared with LDAC alone” value [9] is listed as “significant increase in OS”, the “Benefit of the combination” value [10] is listed as “no benefit” and the “Risk of severe infections” value [10] is listed as “increased risk of severe infections”.

For “Bevacizumab: anti-angiogenics / angiogenesis inhibitor, also referred to herein as bev”, the mOS ([11]; bev naïve patients) is listed as 13.9 months, the mPFS ([11]; bev naïve patients) is listed as 6.9 months and the mOS ([11]; patients with prior bev) is listed as 12.5 months. The mPFS ([11]; patients with prior bev) was 6.7 months.
